The source of these data is patent publication US12110311B2, “Cyclic deoxyribonucleotide compounds” (NUCORION PHARMACEUTICALS, INC., priority 2019, dated 2024).

Read-outs that look alike come from different tables or passages of the source.

The conditions of data set [1]: in vivo; cited from earlier work.
Data set [2] is described as follows: Tissue distribution following oral administration in rats (prodrug and metabolite levels in liver and blood). The note with it: rat, 1 hour after oral administration, 5 mg/kg. The class given is in vivo. Here is the method: The liver specificity of the disclosed compounds is compared relative to a corresponding active compound in the liver and other organs that could be targets of toxicity.
Reference compounds and the cyclic deoxyribonucleotide compounds are administered at 5-50 mg/kg to fasted rats by oral gavage. Plasma concentrations of the metabolites, and parent compounds in circulation and in the hepatic portal vein are determined by HPLC-UV, and the liver, small intestine, and other organ concentrations are measured by LC-MS using the standard chromatography method.

The mark [3] stands for this setting: prodrug level in blood, read-out: Drug blood.
[4] abbreviates: prodrug level in liver, read-out: Drug liver.

As to `O=c1[nH]cc(F)c(=O)[nH]1` [5-Fluorouracil], the biological half-life in data set [1] is listed as roughly 16 minutes.

For `CC(C)OC(=O)c1ccccc1COP1(=O)OC[C@H]2O[C@@H](n3cc(F)c(=O)[nH]c3=O)C[C@@H]2O1` (stereo partly drawn) [Compound 124, Isopropyl 2-((((4aR,6R,7aS)-6-(5-fluoro-2,4-dioxo-3,4-dihydropyrimidin-1(2H)-yl)-2-oxidotetrahydro-4H-furo[3,2-d][1,3,2]dioxaphosphinin-2-yl)oxy)methyl)benzoate], the concentration at 1 h in data set [2] (setting [3]) was 11 ng/mL; in data set [2] (setting [4]) it was 668 ng/g.

For `CCCOC(=O)c1ccccc1COP1(=O)OC[C@H]2O[C@@H](n3cc(F)c(=O)[nH]c3=O)C[C@@H]2O1` (stereo partly drawn) [Compound 126, Propyl 2-((((4aR,6R,7aS)-6-(5-fluoro-2,4-dioxo-3,4-dihydropyrimidin-1(2H)-yl)-2-oxidotetrahydro-4H-furo[3,2-d][1,3,2]dioxaphosphinin-2-yl)oxy)methyl)benzoate], the concentration at 1 h in data set [2] (setting [3]) was found to be 2.7 ng/mL; in data set [2] (setting [4]), 9.3 ng/g.
